Like-named read-outs stand apart in the source and are kept apart here.
Columns and labels:
[1] = tested on: LLC-PK1 cell layers; assay: Transepithelial electrical resistance (Rt) across LLC-PK1 cell layers; type: cell-based, porcine; settings: for transepithelial resistance: LLC-PK1 cell layers
Procedure: (§1) LLC-PK1 is a porcine cell line model of the kidney proximal tubule.
The effect of zinc and/or quercetin on the electrical resistance across LLC-PK1 renal epithelial cell layers was tested. Briefly, LLC-PK1 renal epithelial cell layers were treated with either 100 μM zinc alone, 400 μM quercetin alone; or both agents together. The stimulation of transepithelial electrical resistance (Rt) by maximally effective concentrations of zinc alone and quercetin alone was in the range of 50-60% of control levels. […] The results shown in FIG. 8 represent the mean+/− standard error for 12 cell layers. P values are for one-sided Student's t tests.

[2] = tested on: human colonic (HCT-8) epithelial cell layers; settings: indole 1 mM; HCT-8 cell layers; Bansal et al. 2010; cited from earlier work
[3] = tested on: Tricellulin; assay: Tricellulin expression in LLC-PK1 cell layers (Western immunoblot); type: cell-based, porcine; settings: for Tricellulin: LLC-PK1 cell layers, given as Decr (decrease)
From the text: (§2) Zinc has long been known to be efficacious in the treatment of certain types of diarrhea. It has been determined that zinc can render certain TJ barriers less leaky. Zinc effects can vary depending upon the specific type of epithelial layer.

[4] = tested on: Claudin-2; assay: Claudin-2 expression in LLC-PK1 cell layers (Western immunoblot); type: cell-based, porcine; settings: for Claudin-2: LLC-PK1 cell layers, given as Decr (decrease)
From the text: as §2

[5] = tested on: Claudin-3; assay: Claudin-3 expression in LLC-PK1 cell layers (Western immunoblot); type: cell-based, porcine; settings: for Claudin-3: LLC-PK1 cell layers, given as Decr (decrease)
From the text: as §2

[6] = tested on: Occludin; assay: Occludin expression in LLC-PK1 cell layers (Western immunoblot); type: cell-based, porcine
From the text: as §2

[7] = tested on: Claudin-5; assay: Claudin-5 expression in LLC-PK1 cell layers (Western immunoblot); type: cell-based, porcine; settings: for Claudin-5: LLC-PK1 cell layers, given as Incr (increase); for expression of Claudin 5: LLC-PK1 cells
From the text: as §2

[8] = tested on: Claudin-1; assay: Claudin-1 expression in LLC-PK1 cell layers (Western immunoblot); type: cell-based, porcine
From the text: as §2

[9] = tested on: Claudin-4; assay: Claudin-4 expression in LLC-PK1 cell layers (Western immunoblot); type: cell-based, porcine; settings: for Claudin-4: LLC-PK1 cell layers, given as Incr (increase)
From the text: as §2

[10] = tested on: Claudin-7; assay: Claudin-7 expression in LLC-PK1 cell layers; type: cell-based, porcine
[11] = tested on: claudin-2; settings: indole 1 mM; HCT-8 cell layers; Bansal et al. 2010; cited from earlier work
[12] = tested on: ZO-1; settings: selenium (e.g., 100 ng/ml); Martin et al. 2007; cited from earlier work
[13] = tested on: mammary epithelial barrier; settings: selenium (e.g., 100 ng/ml), Martin et al. 2007; cited from earlier work
[14] = tested on: mammary epithelial barrier; settings: selenium at supplemental concentration (e.g., 100 ng/ml); Martin et al. 2007; cited from earlier work
[15] = tested on: occludin; settings: selenium (e.g., 100 ng/ml); Martin et al. 2007; cited from earlier work
[16] = tested on: human colonic (CACO-2) epithelial cell layer; settings: cited from earlier work
[17] = tested on: human colonic (CACO-2) epithelial cell layer; settings: cited from earlier work; remark: listed apart in the source
[18] = tested on: TJ; settings: glutamine; Seth et al. 2004; cited from earlier work
[19] = tested on: claudin-1; settings: cited from earlier work
[20] = tested on: tricellulin; assay: Tricellulin amount in CACO-2 cell layers; type: cell-based, human; settings: 50 or 100 micromolar zinc; CACO-2 cell layer
From the text: (§3) When the effects of 50 or 100 micromolar zinc were examined on the TJ permeability of a human colonic (CACO-2) epithelial cell layer, the results were quite different. Here the Rt increased as with the renal epithelium. However, there was an increase—as opposed to a decrease—in a D-mannitol diffusion. In other words, zinc decreased leak to salts but increased leak to small nonelectrolytes. […] Even though the overall cellular content of the tight junction protein(s) may not be affected, zinc may cause a ‘shift’ in certain tight junction protein (e.g., certain claudins) out of the tight junctional complex and into the cell's cytoplasm.

[21] = tested on: claudin-1; assay: Claudin 1 amount / localization in colonic (CACO-2) epithelial cell layers; type: cell-based, human; settings: 50 or 100 micromolar zinc; CACO-2 cell layer
From the text: as §3

[22] = tested on: claudin 5; assay: Claudin 5 amount in colonic (CACO-2) epithelial cell layers; type: cell-based, human; settings: 50 or 100 micromolar zinc; CACO-2 cell layer
From the text: as §3

[23] = tested on: claudin-4; assay: Claudin 4 amount in colonic (CACO-2) epithelial cell layers; type: cell-based, human; settings: 50 or 100 micromolar zinc; CACO-2 cell layer
From the text: as §3

[24] = tested on: occludin; settings: zinc supplementation; small intestine; Zhang et al. 2009; cited from earlier work
[25] = tested on: human colonic (CACO-2) epithelial cell layer; assay: D-mannitol diffusion across CACO-2 cell layers; type: cell-based; settings: 50 or 100 micromolar zinc; CACO-2 cell layer
From the text: as §3

[26] = tested on: small intestine; settings: zinc supplementation, Zhang et al. 2009; cited from earlier work
[27] = tested on: human colonic (CACO-2) epithelial cell layer; assay: Transepithelial electrical resistance (Rt) across CACO-2 cell layers; type: cell-based; settings: 50 or 100 micromolar zinc; CACO-2 cell layer
From the text: as §3

[28] = tested on: claudin 3; assay: Claudin 3 amount in colonic (CACO-2) epithelial cell layers; type: cell-based, human; settings: 50 or 100 micromolar zinc; CACO-2 cell layer
From the text: as §3

[29] = tested on: ZO-1; settings: zinc supplementation; small intestine; Zhang et al. 2009; cited from earlier work
[30] = tested on: LLC-PK1 cell layers; assay: Mannitol flux / leak across LLC-PK1 cell layers; type: cell-based, porcine; settings: for Mannitol Flux / mannitol leaking across the cell layer: LLC-PK1 cell layers; for Mannitol Flux: given as Decr (decrease)
Procedure: FIG. 7A provides a graph of transepithelial resistance of untreated (control) LLC-PK1 cell layers or LLC-PK1 cell layers treated with 50 μM, 100 μM, or 200 μM zinc. FIG. 7B provides a graph of ^14C-D-mannitol leak across untreated (control) LLC-PK1 cell layers or LLC-PK1 cell layers treated with 50 μM, 100 μM, or 200 μM zinc.
as §1

[31] = tested on: occludin; assay: Occludin amount / localization in colonic (CACO-2) epithelial cell layers; type: cell-based, human; settings: 50 or 100 micromolar zinc; CACO-2 cell layer
From the text: as §3

[32] = tested on: claudin 7; assay: Claudin 7 amount in colonic (CACO-2) epithelial cell layers; type: cell-based, human; settings: 50 or 100 micromolar zinc; CACO-2 cell layer
From the text: as §3

[33] = tested on: ZO-1; settings: zinc; colonic (CACO-2) epithelia; Finamore et al. 2008; cited from earlier work
[34] = tested on: occludin; settings: cited from earlier work
[35] = tested on: claudin 2; assay: Claudin 2 amount in colonic (CACO-2) epithelial cell layers; type: cell-based, human; settings: 50 or 100 micromolar zinc; CACO-2 cell layer
From the text: as §3

[36] = tested on: epithelial TJs; settings: arginine; Rhoads et al. 2009; cited from earlier work
[37] = tested on: ZO-2; settings: quercetin; independent study, Suzuki et al. 2009; cited from earlier work
[38] = tested on: colonic (CACO-2) epithelial cell layers; settings: quercetin treatment; Suzuki et al. 2009; cited from earlier work
[39] = tested on: claudin 3; settings: quercetin 0.2 mM; CACO-2; Amasheh et al. 2008; cited from earlier work
[40] = tested on: claudin-4; settings: cited from earlier work
[41] = tested on: claudin 7; settings: quercetin 0.2 mM; CACO-2; Amasheh et al. 2008; cited from earlier work
[42] = glutamine, CACO-2 epithelial cell layers, Li et al. 2009
[43] = zinc at 50 and 100 micromolar, LLC-PK1 epithelium
[44] = zinc, LLC-PK1 renal epithelial model
[45] = quercetin 0.2 mM, CACO-2, Amasheh et al. 2008
[46] = quercetin, independent study, Suzuki et al. 2009

c1ccc2[nH]ccc2c1 [indole]
transepithelial resistance ([1]; 1 mM Indole, given as Incr (increase)): Incr 30% | transepithelial resistance ([1]; indole (0.1, 1, 2 mM, FIG. 6)): increased | Rt [2]: increased | Tricellulin ([3]; 1 mM Indole): Decr 10% | effect on tricellulin ([3]; indole, LLC-PK1 cells): less than 50% | Claudin-2 ([4]; 1 mM Indole): Decr 40% | effect on claudin 2 ([4]; indole, LLC-PK1 cells): less than 50% | Claudin-3 ([5]; 1 mM Indole): Decr 20% | effect on claudin 3 ([5]; indole, LLC-PK1 cells): less than 50% | effect on occludin ([6]; indole, LLC-PK1 cells): less than 50% | Claudin-5 ([7]; 1 mM Indole): Incr 150% | expression of Claudin 5 ([7]; indole (1 mM, FIG. 5B)): upregulated | Claudin-1 ([8]; 1 mM Indole, LLC-PK1 cell layers, given as Decr (decrease)): Decr 30% | effect on claudin 1 ([8]; indole, LLC-PK1 cells): less than 50% | Claudin-4 ([9]; 1 mM Indole): Incr 100% | expression of Claudin 4 ([9]; indole (1 mM, FIG. 5A), LLC-PK1 cells): upregulated | effect on claudin 7 ([10]; indole, LLC-PK1 cells): less than 50% | abundance of claudin-2 [11]: decreased

[Se] [Selenium]
cellular redistribution of ZO-1 from cytosolic to junctional regions [12]: cellular redistribution | paracellular invasion of cancer cells [13]: decreased | Rt [14]: increased | cellular redistribution of occludin from cytosolic to junctional regions [15]: cellular redistribution

NC(=O)CC[C@H](N)C(=O)O [glutamine]
Rt [16, 42]: increased | mannitol diffusion [17, 42]: decreased | toxicity-related increases in TJ leakiness [18]: reverse | claudin-1 expression [19, 42]: increasing

[Zn] [zinc]
transepithelial resistance ([1]; 100 μM Zn, given as Incr (increase)): Incr > 40% | transepithelial resistance ([1]; zinc (50, 100, 200 μM, FIG. 7A)): increased | transepithelial electrical resistance (Rt) ([1]; zinc at 50 and 100 micromolar, renal proximal tubular-like (LLC-PK1) epithelium): increased | tricellulin amount [20]: no changes | claudin 1 amount [21]: no changes | claudin 5 amount [22]: no changes | claudin 4 amount [23]: no changes | levels of occludin [24]: increased | D-mannitol diffusion [25]: increase | tricellulin expression by Western immunoblot [3, 43]: none had exhibited increased or decreased expression | leakage of the small non-electrolyte lactulose [26]: decreasing | claudin 2 expression by Western immunoblot [4, 43]: none had exhibited increased or decreased expression | shift of claudin 2 out of the tight junctional complex into the cytoplasm [4, 44]: has been observed | claudin 3 expression by Western immunoblot [5, 43]: none had exhibited increased or decreased expression | occludin expression by Western immunoblot [6, 43]: none had exhibited increased or decreased expression | claudin 5 expression by Western immunoblot [7, 43]: none had exhibited increased or decreased expression | Rt [27]: increased | claudin 1 expression by Western immunoblot [8, 43]: none had exhibited increased or decreased expression | claudin 4 expression by Western immunoblot [9, 43]: none had exhibited increased or decreased expression | shift of claudin 4 out of the tight junctional complex into the cytoplasm [9, 44]: has been observed | claudin 3 amount [28]: no changes | levels of ZO-1 [29]: increased | Mannitol Flux ([30]; 100 μM Zn): Decr > 20% | mannitol leaking across the cell layer ([30]; zinc (50, 100, 200 μM, FIG. 7B)): decrease | transepithelial diffusion of D-mannitol [30, 43]: decreased | occludin amount [31]: no changes | claudin 7 amount [32]: significant decreases | localization of ZO-1 [33]: regulate the localization | localization of occludin ([34]; zinc, colonic (CACO-2) epithelia, Finamore et al. 2008): regulate the localization | claudin 2 amount [35]: significant decreases

N=C(N)NCCC[C@H](N)C(=O)O [arginine]
barrier-enhancing effects (compared with glutamine) [36]: very similar barrier-enhancing effects

O=c1c(O)c(-c2ccc(O)c(O)c2)oc2cc(O)cc(O)c12 [quercetin]
transepithelial resistance ([1]; 400 μM Quercetin, given as Incr (increase)): Incr > 20% | transepithelial resistance ([1]; quercetin (100, 200, 400 μM, FIG. 4A)): increased | cellular redistribution of ZO-2 [37]: cellular redistribution | TJ permeability to Na+ and Cl− ions [16, 45]: decreased | Rt ([16]; quercetin 0.2 mM, colonic (CACO-2) epithelial cell layers, Amasheh et al. 2008): increased | TJ permeability to the nonelectrolyte D-mannitol [17, 45]: no significant effect | Tricellulin ([3]; 400 μM Quercetin): Decr 15% | amount of claudin 1 [19, 45]: unaffected | cellular redistribution of claudin-1 [19, 46]: cellular redistribution | Claudin-2 ([4]; 400 μM Quercetin): Decr 75% | expression of Claudin 2 ([4]; 400 μM quercetin, LLC-PK1 cells, FIG. 3A): downregulated | Claudin-3 ([5]; 400 μM Quercetin): Decr 30% | Claudin-5 ([7]; 400 μM Quercetin): Incr 100% | expression of Claudin 5 ([7]; 400 μM quercetin, FIG. 3B): upregulated | permeability of the electrically charged dye Lucifer yellow [38]: decreased | Claudin-4 ([9]; 400 μM Quercetin): Incr 75% | Mannitol Flux ([30]; 400 μM Quercetin): Decr > 20% | mannitol leaking across the cell layer ([30]; quercetin (100, 200, 400 μM, FIG. 4B)): decrease | amount of claudin 3 [39]: unaffected | TJ content of claudin-4 [40, 45]: dramatic increase | increase in claudin-4 [40, 46]: confirmed | Claudin-7 ([10]; 400 μM Quercetin, LLC-PK1 cell layers, given as Incr (increase)): Incr 200% | amount of claudin 7 [41]: unaffected | amount of occludin [34, 45]: unaffected | cellular redistribution of occludin [34, 46]: cellular redistribution

From patent publication US20150140121A1, “Compositions and Methods for Tight Junction Modulation” (Lankenau Institute for Medical Research, priority 2012, published 2015)
